Test results: patent US20020002171A1, “Materials and methods for killing nematodes and nematode eggs” (priority 2000, published 2002)

System: Caenorhabditis elegans
Assay: C. elegans L1 nematicidal dose response in 96-well plates, 5 day visual score (Example 2; same procedure for Example 7, Table 3)
Assay type: in vivo
Design: key to 5 Day Visual Score V1 / 5 Day Visual Score V2 / 5 Day Visual Score V3 / 5 Day Visual Score V4 / 5 Day Visual Score V6 / 5 Day Visual Score V5 / Initial HTS Run Visual Score / Follow-up HTS Run Visual Score: Dead: only stiff L1s (no movement); Dead (L4): worms are dead, but at a later larval stage; majority of worms are L1 (based on size) worms move when plate is tapped; majority of worms are L2 (based on size); majority of worms are L3 (based on size); majority of worms are L4 (based on size); AD: majority of worms are adult; #AD: 5 adult worms or less; B!: sterile (0-25 progeny); B: low broodsize (25-100 progeny); ˜B: moderate broodsize (100-250 progeny); <: reduced broodsize (250-500 progeny); OK: no effect (˜1000+ progeny)
How it was run: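 Scoring was by eye at 100× on day 5, after incubation at 20° C, of 20 C. elegans L1s per well fed 1% E. coli HB101 in NGM. Compound columns V1–V6 spanned 70 μM to 0.3 μM in 3-fold steps, with 1.4% DMSO in the top well and as control.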

[1] = dose response, dilution V1, day 5
[2] = dose response, dilution V4, day 5
[3] = dose response, dilution V5, day 5
[4] = dose response, dilution V6, day 5
[5] = 0.3 μM, C. elegans L1, scored day 5
[6] = 0.9 μM, C. elegans L1, scored day 5
[7] = 2.6 μM, C. elegans L1, scored day 5
[8] = 7.8 μM, C. elegans L1, scored day 5
[9] = 23.3 μM, C. elegans L1, scored day 5
[10] = 70 μM, C. elegans L1, scored day 5
[11] = dose response, dilution V2, day 5
[12] = dose response, dilution V3, day 5

## Cc1cccc(C)c1N1CCN(c2nsc(N3CC(C)CC(C)C3)n2)CC1 (stereo not drawn) [compound 219]
  Follow-up HTS Run % Run: 74%
  Follow-up HTS Run Visual Score: Dead/1AD/B!
  Follow-up HTS Run mOD: 119 mOD
  Initial HTS Run % Run: 90%
  Initial HTS Run Visual Score: 4AD/B
  Initial HTS Run mOD: 99 mOD
[1]
  5 Day Visual Score V1: Dead
[2]
  5 Day Visual Score V4: OK (no effect (˜1000+ progeny))
[3]
  5 Day Visual Score V5: OK (no effect (˜1000+ progeny))
[4]
  5 Day Visual Score V6: OK (no effect (˜1000+ progeny))

## COc1ccc(CCN(C)c2nc(NCc3ccc(C(F)(F)F)cc3)ns2)cc1OC [compound 317]
  Follow-up HTS Run % Run: 111%
  Follow-up HTS Run Visual Score: L2
  Follow-up HTS Run mOD: 179 mOD
  Initial HTS Run % Run: 108%
  Initial HTS Run mOD: 119 mOD
Dose response, dilution V1, 5 day
  5 Day Visual Score V1: Dead
Dose response, dilution V3, 5 day
  5 Day Visual Score V3: OK (no effect (˜1000+ progeny))
Dose response, dilution V4, 5 day
  5 Day Visual Score V4: OK (no effect (˜1000+ progeny))
Dose response, dilution V5, 5 day
  5 Day Visual Score V5: OK (no effect (˜1000+ progeny))
Dose response, dilution V6, 5 day
  5 Day Visual Score V6: OK (no effect (˜1000+ progeny))

## Cc1ccc(C(CC(=O)c2ccccc2)Nc2ccc(I)cc2)o1 (stereo not drawn) [AKC 128]
[5]
  5 Day Visual Score V6: OK (no effect (˜1000+ progeny))
[6]
  5 Day Visual Score V5: #AD/˜B
[7]
  5 Day Visual Score V4: L1
[8]
  5 Day Visual Score V3: Dead
[9]
  5 Day Visual Score V2: Dead
[10]
  5 Day Visual Score V1: Dead

## CCCCN(CC)c1nc(N2CCN(c3ccc(F)cc3)CC2)ns1 [compound 236]
  Follow-up HTS Run % Run: 123%
  Follow-up HTS Run Visual Score: Dead
  Follow-up HTS Run mOD: 198 mOD
  Initial HTS Run % Run: 136%
  Initial HTS Run Visual Score: 1AD/B
  Initial HTS Run mOD: 150 mOD
[1]
  5 Day Visual Score V1: Dead
[2]
  5 Day Visual Score V4: < (reduced broodsize (250-500 progeny))
[3]
  5 Day Visual Score V5: < (reduced broodsize (250-500 progeny))
[4]
  5 Day Visual Score V6: OK (no effect (˜1000+ progeny))

## Fc1ccc(CCNc2nsc(N3CCN(c4ccc(F)cc4)CC3)n2)cc1 [compound 240]
  Follow-up HTS Run % Run: 86%
  Follow-up HTS Run Visual Score: Dead
  Follow-up HTS Run mOD: 138 mOD
  Initial HTS Run % Run: 101%
  Initial HTS Run mOD: 111 mOD
[1]
  5 Day Visual Score V1: Dead
[11]
  5 Day Visual Score V2: L1
[2]
  5 Day Visual Score V4: ˜B (moderate broodsize (100-250 progeny))
[3]
  5 Day Visual Score V5: < (reduced broodsize (250-500 progeny))
[4]
  5 Day Visual Score V6: OK (no effect (˜1000+ progeny))

## CCCCCCCCCCNc1nsc(N2CCN(c3ccc(F)cc3)CC2)n1 [compound 273]
  Follow-up HTS Run % Run: 94%
  Follow-up HTS Run Visual Score: Dead
  Follow-up HTS Run mOD: 151 mOD
  Initial HTS Run % Run: 101%
  Initial HTS Run mOD: 111 mOD
[1]
  5 Day Visual Score V1: Dead
[11]
  5 Day Visual Score V2: Dead
[12]
  5 Day Visual Score V3: B (low broodsize (25-100 progeny))
[2]
  5 Day Visual Score V4: ˜B (moderate broodsize (100-250 progeny))
[3]
  5 Day Visual Score V5: OK (no effect (˜1000+ progeny))
[4]
  5 Day Visual Score V6: OK (no effect (˜1000+ progeny))

## CCOc1cccc(C2ON=C(c3ccccc3OCC)C2C(=O)NCc2ccc(OC(F)(F)F)cc2)c1 (stereo not drawn) [AKC 125]
[7]
  5 Day Visual Score V4: L2
[8]
  5 Day Visual Score V3: L2
[9]
  5 Day Visual Score V2: L2/Dead(L4)
[10]
  5 Day Visual Score V1: L2/Dead(L3)

## Cc1cccc(C)c1N1CCN(c2nsc(N(CC(C)C)CC(C)C)n2)CC1 [compound 231]
  Follow-up HTS Run % Run: 65%
  Follow-up HTS Run Visual Score: 2AD/B
  Follow-up HTS Run mOD: 105 mOD
  Initial HTS Run % Run: 119%
  Initial HTS Run Visual Score: 2AD/B
  Initial HTS Run mOD: 131 mOD
[1]
  5 Day Visual Score V1: Dead
[11]
  5 Day Visual Score V2: Dead
[12]
  5 Day Visual Score V3: < (reduced broodsize (250-500 progeny))
[2]
  5 Day Visual Score V4: OK (no effect (˜1000+ progeny))
[3]
  5 Day Visual Score V5: OK (no effect (˜1000+ progeny))
[4]
  5 Day Visual Score V6: OK (no effect (˜1000+ progeny))

## CCCCOc1ccc(C(=O)N2CC(OCCCc3ccccc3)CC2C(=O)NCc2ccccc2OC)cc1 (stereo not drawn) [AKC 126]
[5]
  5 Day Visual Score V6: #AD/˜B
[6]
  5 Day Visual Score V5: ˜B (moderate broodsize (100-250 progeny))
[7]
  5 Day Visual Score V4: #AD/˜B

## CCC1CCCCN1c1cc(Oc2ccc3oc4ccccc4c3c2)ncn1 (stereo not drawn) [AKC 340]
[9]
  5 Day Visual Score V2: L1
[10]
  5 Day Visual Score V1: L1

## CCCCN(Cc1ccccc1)c1nc(NCc2ccc(F)cc2F)ns1 [compound 291]
  Follow-up HTS Run % Run: 137%
  Follow-up HTS Run Visual Score: B! (sterile (0-25 progeny))
  Follow-up HTS Run mOD: 220 mOD
  Initial HTS Run % Run: 136%
  Initial HTS Run mOD: 150 mOD
[1]
  5 Day Visual Score V1: L4#AD/B!
[11]
  5 Day Visual Score V2: OK (no effect (˜1000+ progeny))
[12]
  5 Day Visual Score V3: OK (no effect (˜1000+ progeny))
[2]
  5 Day Visual Score V4: OK (no effect (˜1000+ progeny))
[3]
  5 Day Visual Score V5: OK (no effect (˜1000+ progeny))
[4]
  5 Day Visual Score V6: OK (no effect (˜1000+ progeny))

## CN(CCc1ccccc1)c1nc(NCCc2ccc(F)cc2)ns1 [compound 243]
  Follow-up HTS Run % Run: 86%
  Follow-up HTS Run Visual Score: B (low broodsize (25-100 progeny))
  Follow-up HTS Run mOD: 139 mOD
  Initial HTS Run % Run: 115%
  Initial HTS Run Visual Score: L4/AD/B!
  Initial HTS Run mOD: 127 mOD
[11]
  5 Day Visual Score V2: B (low broodsize (25-100 progeny))
[12]
  5 Day Visual Score V3: OK (no effect (˜1000+ progeny))
[2]
  5 Day Visual Score V4: OK (no effect (˜1000+ progeny))
[3]
  5 Day Visual Score V5: OK (no effect (˜1000+ progeny))
[4]
  5 Day Visual Score V6: OK (no effect (˜1000+ progeny))

## Cc1ccc(C(CC(=O)c2ccccc2)Nc2ccc(I)cc2F)o1 (stereo not drawn) [AKC 129]
[6]
  5 Day Visual Score V5: OK (no effect (˜1000+ progeny))
[9]
  5 Day Visual Score V2: Dead
[10]
  5 Day Visual Score V1: Dead

## O=C(NCC1CCC(c2nc(-c3ccccc3)no2)CC1)Nc1ccc(OC(F)(F)F)cc1 (stereo not drawn) [AKC 113]
[5]
  5 Day Visual Score V6: L4/#AD/B
[7]
  5 Day Visual Score V4: Dead(L2/L
[8]
  5 Day Visual Score V3: Dead
[9]
  5 Day Visual Score V2: Dead
[10]
  5 Day Visual Score V1: Dead
